Active and inactive are the calls of the source. No cut-off for these calls is given here.
Tests used:
Mu-type opioid receptor [1] = target: T1, Mu-type opioid receptor (Homo sapiens, UniProt P35372); assay: Agonist activity at human MOP expressed in HEK293 cells coexpressing GloSensor-20F assessed as inhibition of forskolin-induced cAMP accumulation; format: functional, cell-based
Mu-type opioid receptor [2] = target: T1, Mu-type opioid receptor; assay: Agonist activity at human MOP expressed in HEK293 cells coexpressing GloSensor-20F assessed as inhibition of forskolin-induced cAMP accumulation relative to control; format: functional, cell-based; settings: filed as agonist
Mu-type opioid receptor [3] = target: T1, Mu-type opioid receptor; assay: Agonist activity at human Rluc8-tagged MOP expressed in HEK293 cells coexpressing eYFP-tagged beta-arrestin-2 assessed as beta-arrestin-2 recruitment incubated for 5 mins by luminometer analysis; format: functional, cell-based; settings: read-out: EC50
Mu-type opioid receptor [4] = target: T1, Mu-type opioid receptor; assay: Agonist activity at human Rluc8-tagged MOP expressed in HEK293 cells coexpressing eYFP-tagged beta-arrestin-2 assessed as beta-arrestin-2 recruitment incubated for 5 mins by luminometer analysis relative to control; format: functional, cell-based
[5] = Induction of naltrexone-precipitated withdrawal syndrome in sc dosed C57BL/6N mouse assessed as diarrhea administered for 8 days followed by naltrexone addition on day 9 after 2 hrs post last dose and measured after 30 mins; format: toxicity, organism-based; settings: in vivo, 216.5 h, time 12990 min
[6] = target: T2, Neuropeptide FF receptor 1 (Homo sapiens, UniProt Q9GZQ6); assay: Displacement of [125I]-1DMeNPFF from human NPFFR1 expressed in CHO cell membrane at 0.5 uM incubated for 1 hr by Topcount counting method relative to control; format: cell membranes
[7] = target: T2, Neuropeptide FF receptor 1; assay: Antagonist activity at human NPFFR1 expressed in CHO cell membrane assessed as inhibition of NPVF induced cAMP response at 5 uM incubated for 1 hr by Topcount counting method relative to control; format: functional, cell membranes; set-up: scale not given: the % may be the effect or the level left
[8] = target: T3, Neuropeptide FF receptor 2 (Homo sapiens, UniProt Q9Y5X5); assay: Displacement of [125I]-1DMeNPFF from human NPFFR2 expressed in CHO cell membrane at 0.05 uM incubated for 1 hr by Topcount counting method relative to control; format: cell membranes; settings: filed as antagonist
[9] = target: T3, Neuropeptide FF receptor 2; assay: Antagonist activity at human NPFFR2 expressed in CHO cell membrane assessed as inhibition of NPVF induced cAMP response at 5 uM incubated for 1 hr by Topcount counting method relative to control; format: functional, cell membranes; set-up: scale not given: the % may be the effect or the level left; settings: filed as antagonist
[10] = target: T2, Neuropeptide FF receptor 1; assay: Displacement of [125I]-1DMeNPFF from human NPFFR1 expressed in CHO cell membrane incubated for 1 hr by Topcount counting method; format: cell membranes
[11] = target: T2, Neuropeptide FF receptor 1; assay: Antagonist potency at human NPFFR1 expressed in CHO cell membrane assessed as inhibition of NPVF induced cAMP response incubated for 1 hr by Topcount counting method; format: functional, cell membranes; settings: read-out: pA2 (converted)
[12] = target: T3, Neuropeptide FF receptor 2; assay: Displacement of [125I]-1DMeNPFF from human NPFFR2 expressed in CHO cell membrane incubated for 1 hr by Topcount counting method; format: cell membranes
[13] = target: T3, Neuropeptide FF receptor 2; assay: Antagonist potency at human NPFFR2 expressed in CHO cell membrane assessed as inhibition of NPVF induced cAMP response incubated for 1 hr by Topcount counting method; format: functional, cell membranes; settings: read-out: pA2 (converted)
[14] = target: Delta-type opioid receptor (Homo sapiens) (UniProt P41143); assay: Agonist activity at human DOP expressed in HEK293 cells assessed as inhibition of forskolin-induced cAMP accumulation; format: functional, cell-based; settings: filed as agonist
[15] = target: Kappa-type opioid receptor (Homo sapiens, UniProt P41145); assay: Partial agonist activity at human KOR expressed in HEK293 cells assessed as forskolin-induced cAMP accumulation in presence of IBMX; format: functional, cell-based; settings: filed as partial agonist
[16] = target: Nociceptin receptor (Homo sapiens) (UniProt P41146); assay: Antagonist activity at human NOR expressed in HEK293 cells assessed as forskolin-induced cAMP accumulation in presence of IBMX; format: functional, cell-based; settings: filed as antagonist
[17] = target: T4, Prolactin-releasing peptide receptor (Homo sapiens) (UniProt P49683); assay: Agonist activity at human GPR10 expressed in CHO cells assessed as intracellular calcium release upto 10 uM by Fluo-4 AM dye based calcium mobilization assay; format: functional, cell-based
T4 sequence (whole entry): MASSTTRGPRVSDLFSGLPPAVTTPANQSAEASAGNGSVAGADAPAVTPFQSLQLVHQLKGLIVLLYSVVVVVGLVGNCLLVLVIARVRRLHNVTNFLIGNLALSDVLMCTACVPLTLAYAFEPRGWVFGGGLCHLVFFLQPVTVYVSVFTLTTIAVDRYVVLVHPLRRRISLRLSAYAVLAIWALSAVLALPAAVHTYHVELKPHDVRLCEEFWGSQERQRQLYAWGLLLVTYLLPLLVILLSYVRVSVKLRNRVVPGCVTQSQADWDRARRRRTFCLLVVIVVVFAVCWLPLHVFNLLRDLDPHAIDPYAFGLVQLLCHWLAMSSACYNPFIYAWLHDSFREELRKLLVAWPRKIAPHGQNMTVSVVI

[18] = target: KiSS-1 receptor (Homo sapiens) (UniProt Q969F8); assay: Agonist activity at human GPR54 expressed in CHO cells assessed as intracellular calcium release upto 10 uM by Fluo-4 AM dye based calcium mobilization assay; format: functional, cell-based
[19] = target: T5, Pyroglutamylated RF-amide peptide receptor (Homo sapiens) (UniProt Q96P65); assay: Agonist activity at human GPR103 expressed in CHO cells assessed as intracellular calcium release upto 10 uM by Fluo-4 AM dye based calcium mobilization assay; format: functional, cell-based
T5 sequence (whole entry): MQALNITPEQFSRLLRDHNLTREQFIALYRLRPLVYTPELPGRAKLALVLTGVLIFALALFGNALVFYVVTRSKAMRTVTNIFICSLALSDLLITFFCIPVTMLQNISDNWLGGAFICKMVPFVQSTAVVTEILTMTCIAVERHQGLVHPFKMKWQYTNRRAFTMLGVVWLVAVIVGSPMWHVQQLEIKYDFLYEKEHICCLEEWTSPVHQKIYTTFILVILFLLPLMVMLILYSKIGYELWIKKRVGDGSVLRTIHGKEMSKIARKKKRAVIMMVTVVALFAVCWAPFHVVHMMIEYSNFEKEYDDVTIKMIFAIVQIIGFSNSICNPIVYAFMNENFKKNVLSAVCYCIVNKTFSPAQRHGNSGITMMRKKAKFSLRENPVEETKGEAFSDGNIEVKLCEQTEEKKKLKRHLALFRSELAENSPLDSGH

[20] = target: T4, Prolactin-releasing peptide receptor (Homo sapiens); assay: Antagonist activity at human GPR10 expressed in CHO cells assessed as intracellular calcium release upto 10 uM by Fluo-4 AM dye based calcium mobilization assay; format: functional, cell-based
[21] = target: KiSS-1 receptor (Homo sapiens) (UniProt Q969F8); assay: Antagonist activity at human GPR54 expressed in CHO cells assessed as intracellular calcium release upto 10 uM by Fluo-4 AM dye based calcium mobilization assay; format: functional, cell-based
[22] = target: T5, Pyroglutamylated RF-amide peptide receptor (Homo sapiens); assay: Antagonist activity at human GPR103 expressed in CHO cells assessed as intracellular calcium release upto 10 uM by Fluo-4 AM dye based calcium mobilization assay; format: functional, cell-based
[23] = Cmax in mouse at 10 mg/kg, sc measured upto 24 hrs by LC-MS/MS analysis; format: ADME, organism-based; settings: in vivo
[24] = Tmax in mouse at 10 mg/kg, sc measured upto 24 hrs by LC-MS/MS analysis; format: ADME, organism-based; settings: in vivo
[25] = Half life in mouse at 10 mg/kg, sc measured upto 24 hrs by LC-MS/MS analysis; format: ADME, organism-based; settings: in vivo
[26] = Drug concentration in mouse plasma at 10 mg/kg, sc measured after 2 hrs by LC-MS/MS analysis; format: ADME, organism-based
Mus musculus [27] = assay: Antinociceptive activity in mouse at 2.5 to 10 mg/kg, sc measured after 6 hrs by tail immersion test; format: functional, organism-based; settings: dose 2.5-10 mg/kg
Mus musculus [28] = assay: Antinociceptive activity in mouse at 2.5 to 10 mg/kg, sc measured after 24 hrs by tail immersion test; format: functional, organism-based; settings: dose 2.5-10 mg/kg
Mus musculus [29] = assay: Antinociceptive activity in mouse at 4.2 umol/kg, sc administered chronically and measured on day 1; format: functional, organism-based; settings: dose 4.2 µmol/kg
Mus musculus [30] = assay: Antinociceptive activity in mouse at 4.2 umol/kg, sc administered chronically and measured on day 8; format: functional, organism-based; settings: dose 4.2 µmol/kg
Mus musculus [31] = assay: Antinociceptive activity in mouse at 4.2 umol/kg, sc administered daily and measured on day 1 and 8; format: functional, organism-based; settings: dose 4.2 µmol/kg
[32] = Induction of naltrexone-precipitated withdrawal syndrome in sc dosed C57BL/6N mouse assessed as paw tremor administered for 8 days followed by naltrexone addition on day 9 after 2 hrs post last dose and measured after 30 mins; format: toxicity, organism-based; settings: in vivo, 216.5 h, time 12990 min
[33] = Induction of naltrexone-precipitated withdrawal syndrome in sc dosed C57BL/6N mouse assessed as wet dog shake counts administered for 8 days followed by naltrexone addition on day 9 after 2 hrs post last dose and measured after 30 mins; format: toxicity, organism-based; settings: in vivo, 216.5 h, time 12990 min
[34] = Induction of naltrexone-precipitated withdrawal syndrome in sc dosed C57BL/6N mouse assessed as high jumping score administered for 8 days followed by naltrexone addition on day 9 after 2 hrs post last dose and measured after 30 mins; format: toxicity, organism-based; settings: in vivo, 216.5 h, time 12990 min
[35] = Induction of motor coordination impairment in C57BL/6 mouse at 10.5 mg/kg, sc by rotarod assay; format: toxicity, organism-based; settings: in vivo
[36] = Toxicity in C57BL/6N mouse assessed as induction of respiratory depression by measuring decrease in pulmonary rate at 3.2 to 31.8 mg/kg, sc by plethysmography; format: organism-based; settings: in vivo, dose 3.2-31.8 mg/kg

T2 sequence (Q9GZQ6 whole entry): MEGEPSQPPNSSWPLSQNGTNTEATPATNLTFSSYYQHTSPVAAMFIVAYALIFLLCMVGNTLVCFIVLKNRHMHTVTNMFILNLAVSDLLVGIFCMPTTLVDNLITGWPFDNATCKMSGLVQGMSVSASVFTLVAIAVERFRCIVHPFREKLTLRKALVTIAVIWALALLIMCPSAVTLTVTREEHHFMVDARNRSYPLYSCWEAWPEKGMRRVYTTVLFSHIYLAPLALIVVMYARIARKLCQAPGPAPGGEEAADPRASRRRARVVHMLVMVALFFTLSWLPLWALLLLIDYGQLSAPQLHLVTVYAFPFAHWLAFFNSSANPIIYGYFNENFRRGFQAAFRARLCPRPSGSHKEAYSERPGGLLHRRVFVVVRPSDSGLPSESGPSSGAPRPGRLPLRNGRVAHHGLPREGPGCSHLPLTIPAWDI
T3 sequence (Q9Y5X5 whole entry): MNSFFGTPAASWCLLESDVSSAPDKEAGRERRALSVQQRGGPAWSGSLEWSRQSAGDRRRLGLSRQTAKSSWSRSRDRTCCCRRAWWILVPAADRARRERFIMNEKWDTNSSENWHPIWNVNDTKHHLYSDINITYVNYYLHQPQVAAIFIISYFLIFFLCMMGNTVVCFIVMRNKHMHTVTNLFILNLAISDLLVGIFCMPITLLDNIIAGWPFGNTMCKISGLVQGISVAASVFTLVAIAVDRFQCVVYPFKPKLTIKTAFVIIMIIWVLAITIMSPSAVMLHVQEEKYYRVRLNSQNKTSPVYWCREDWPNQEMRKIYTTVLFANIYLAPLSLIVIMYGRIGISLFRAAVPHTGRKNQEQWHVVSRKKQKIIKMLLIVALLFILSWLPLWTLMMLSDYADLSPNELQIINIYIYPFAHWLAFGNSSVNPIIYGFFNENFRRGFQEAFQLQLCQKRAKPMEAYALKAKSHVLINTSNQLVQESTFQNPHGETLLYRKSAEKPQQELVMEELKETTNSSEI
T1 sequence (P35372 whole entry): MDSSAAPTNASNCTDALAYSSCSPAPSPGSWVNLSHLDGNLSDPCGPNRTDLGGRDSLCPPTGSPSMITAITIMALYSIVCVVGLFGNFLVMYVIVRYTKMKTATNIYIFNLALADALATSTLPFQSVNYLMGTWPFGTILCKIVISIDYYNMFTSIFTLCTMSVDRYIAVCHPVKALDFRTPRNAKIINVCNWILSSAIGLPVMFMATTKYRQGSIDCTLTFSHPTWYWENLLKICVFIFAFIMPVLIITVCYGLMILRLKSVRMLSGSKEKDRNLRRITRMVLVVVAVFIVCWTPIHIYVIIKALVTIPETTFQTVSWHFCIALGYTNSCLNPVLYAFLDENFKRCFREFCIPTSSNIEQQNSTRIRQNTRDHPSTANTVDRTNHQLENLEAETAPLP
Chain of KiSS-1 receptor (Homo sapiens) (Q969F8 whole entry): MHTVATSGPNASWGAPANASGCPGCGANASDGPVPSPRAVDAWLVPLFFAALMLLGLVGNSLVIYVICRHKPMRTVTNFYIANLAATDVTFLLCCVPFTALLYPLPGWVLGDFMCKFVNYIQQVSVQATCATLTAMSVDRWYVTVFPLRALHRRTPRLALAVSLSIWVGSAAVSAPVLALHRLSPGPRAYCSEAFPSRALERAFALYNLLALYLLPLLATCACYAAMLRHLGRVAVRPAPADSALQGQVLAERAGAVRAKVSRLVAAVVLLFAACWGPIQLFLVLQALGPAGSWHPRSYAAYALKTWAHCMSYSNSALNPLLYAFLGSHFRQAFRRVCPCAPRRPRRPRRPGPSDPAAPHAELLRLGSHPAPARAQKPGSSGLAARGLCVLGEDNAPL
Chain of Nociceptin receptor (Homo sapiens) (P41146 whole entry): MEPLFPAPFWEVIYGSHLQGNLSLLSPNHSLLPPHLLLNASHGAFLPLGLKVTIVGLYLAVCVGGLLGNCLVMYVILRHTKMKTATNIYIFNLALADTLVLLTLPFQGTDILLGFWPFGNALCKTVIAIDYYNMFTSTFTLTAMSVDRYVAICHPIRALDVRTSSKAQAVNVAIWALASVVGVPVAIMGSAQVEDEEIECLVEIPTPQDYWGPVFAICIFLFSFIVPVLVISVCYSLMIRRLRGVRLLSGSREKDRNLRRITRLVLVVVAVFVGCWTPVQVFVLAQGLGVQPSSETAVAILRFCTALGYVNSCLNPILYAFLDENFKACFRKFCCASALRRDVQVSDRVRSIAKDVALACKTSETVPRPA
Chain of Delta-type opioid receptor (Homo sapiens) (P41143 whole entry): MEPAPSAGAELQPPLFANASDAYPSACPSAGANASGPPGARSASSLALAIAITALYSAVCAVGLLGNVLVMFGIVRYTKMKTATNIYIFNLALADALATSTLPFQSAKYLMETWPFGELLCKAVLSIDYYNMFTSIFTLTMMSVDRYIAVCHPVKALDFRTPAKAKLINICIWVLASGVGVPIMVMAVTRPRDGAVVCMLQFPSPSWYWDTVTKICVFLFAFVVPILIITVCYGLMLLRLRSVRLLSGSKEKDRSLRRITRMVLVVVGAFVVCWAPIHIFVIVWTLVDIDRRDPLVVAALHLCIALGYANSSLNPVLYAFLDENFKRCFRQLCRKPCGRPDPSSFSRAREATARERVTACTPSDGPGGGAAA
Chain of Kappa-type opioid receptor (P41145 whole entry): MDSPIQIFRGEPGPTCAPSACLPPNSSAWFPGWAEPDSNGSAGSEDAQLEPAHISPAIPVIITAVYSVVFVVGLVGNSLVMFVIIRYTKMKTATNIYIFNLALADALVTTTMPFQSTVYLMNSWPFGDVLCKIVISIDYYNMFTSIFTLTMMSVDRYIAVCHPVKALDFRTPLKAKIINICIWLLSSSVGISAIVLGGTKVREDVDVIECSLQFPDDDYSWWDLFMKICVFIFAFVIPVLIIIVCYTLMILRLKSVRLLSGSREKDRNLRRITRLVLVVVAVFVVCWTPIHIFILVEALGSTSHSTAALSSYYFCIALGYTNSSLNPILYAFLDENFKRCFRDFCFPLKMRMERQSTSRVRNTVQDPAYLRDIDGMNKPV

Cc1cc(O)cc(C)c1C[C@H](N)C(=O)N(C)[C@H](C)C(=O)N[C@H]1Cc2c(ccc3ccccc23)CN(CCC(=O)N[C@@H](CCCN2CCC(Cc3ccccc3)CC2)C(=O)N[C@@H](Cc2ccccc2)C(N)=O)C1=O
EC50 (Mu-type opioid receptor [1]): 4.5 nM
Emax (Mu-type opioid receptor [2]): 75%
EC50 (Mu-type opioid receptor [3]): > 4000 nM
Emax (Mu-type opioid receptor [4]): 24%
Activity [5]: Non-Toxic
Activity [6]: 19%
Activity [7]: 26%
Activity [8]: 57%
Activity [9]: 83%
Ki [10]: 1310 nM
Kb [11]: 2450 nM
Ki [12]: 32 nM
Kb [13]: 45.7 nM
Activity [14]: Active
Activity [15]: Active
Activity [16]: Active
Activity [17]: inactive
Activity [18]: inactive
Activity [19]: inactive
Activity [20]: inactive
Activity [21]: inactive
Activity [22]: inactive
Cmax [23]: 805 nM
Tmax [24]: 2.33 h
half-life [25]: 3.3 h
concentration at 2 h [26]: 837 nM
Activity (Mus musculus [27]): Active
Activity (Mus musculus [28]): Active
Activity (Mus musculus [29]): Active
Activity (Mus musculus [30]): inactive
Activity (Mus musculus [31]): Active
Activity [32]: Non-Toxic
Activity [33]: Non-Toxic
Activity [34]: Non-Toxic
Activity [35]: Non-Toxic
Activity [36]: Non-Toxic

— ChEMBL document CHEMBL5506024, “Multitarget μ-Opioid Receptor Agonists─Neuropeptide FF Receptor Antagonists Induce Potent Antinociception with Reduced Adverse Side Effects” (J Med Chem, 2024)
